{"source": "ChEMBL document CHEMBL4261582", "about": "“Natural products as inhibitors of Leishmania major dihydroorotate dehydrogenase” (Eur J Med Chem, 2018)", "key": {"[1]": {"target": "T1, Dihydroorotate dehydrogenase (fumarate) (Leishmania major, UniProt Q4QEW7)", "T1 sequence (Q4QEW7 whole entry)": "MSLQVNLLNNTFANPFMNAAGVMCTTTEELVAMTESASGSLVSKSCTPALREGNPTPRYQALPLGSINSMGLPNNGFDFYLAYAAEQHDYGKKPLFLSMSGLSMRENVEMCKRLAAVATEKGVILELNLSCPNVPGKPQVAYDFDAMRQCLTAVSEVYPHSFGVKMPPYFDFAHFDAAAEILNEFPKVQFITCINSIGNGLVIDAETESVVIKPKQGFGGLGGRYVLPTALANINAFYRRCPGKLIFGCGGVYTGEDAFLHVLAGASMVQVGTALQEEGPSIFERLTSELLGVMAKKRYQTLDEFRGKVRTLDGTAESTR", "assay": "Inhibition of recombinant oligo-histidine-tagged Leishmania major DHODH expressed in Escherichia coli BL21(DE3) cells using DHO as substrate measured after 60 secs", "details": "read-out: IC50"}, "[2]": {"tested_on": "Trypanosoma cruzi", "assay": "Antitrypanosomal activity against Trypanosoma cruzi Y amastigotes infected in Swiss albino mouse measured on day 7 post infection by Gential violet staining-based assay", "type": "functional, organism-based", "details": "168 h"}, "[3]": {"target": "Dihydroorotate dehydrogenase (quinone), mitochondrial (Homo sapiens) (UniProt Q02127)", "sequence (Q02127 whole entry)": "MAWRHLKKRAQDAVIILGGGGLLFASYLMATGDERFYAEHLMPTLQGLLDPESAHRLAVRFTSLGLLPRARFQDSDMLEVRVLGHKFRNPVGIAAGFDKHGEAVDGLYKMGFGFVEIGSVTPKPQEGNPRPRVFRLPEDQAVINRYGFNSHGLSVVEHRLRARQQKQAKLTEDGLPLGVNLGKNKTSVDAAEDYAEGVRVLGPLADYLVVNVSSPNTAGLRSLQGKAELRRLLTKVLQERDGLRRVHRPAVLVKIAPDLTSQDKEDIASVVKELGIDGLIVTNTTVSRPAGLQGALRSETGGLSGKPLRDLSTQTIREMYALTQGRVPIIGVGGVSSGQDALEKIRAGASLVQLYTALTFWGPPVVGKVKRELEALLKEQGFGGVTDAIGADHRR", "assay": "Inhibition of human DHODH at 100 uM"}, "[4]": {"target": "T2, Dihydroorotate dehydrogenase (fumarate) (Leishmania major) (UniProt Q4QEW7)", "T2 sequence (whole entry)": "T1 sequence (Q4QEW7 whole entry)", "assay": "Inhibition of recombinant oligo-histidine-tagged Leishmania major DHODH expressed in Escherichia coli BL21(DE3) cells at 100 uM using DHO as substrate measured after 60 secs"}, "[5]": {"target": "T2, Dihydroorotate dehydrogenase (fumarate) (Leishmania major)", "assay": "Binding affinity to Leishmania major DHODH assessed as change in melting temperature at 100 uM by differential scanning fluorimetry-based ThermoFMN assay"}, "[6]": {"target": "T2, Dihydroorotate dehydrogenase (fumarate) (Leishmania major)", "assay": "Binding affinity to Leishmania major DHODH assessed as change in melting temperature at 500 uM by differential scanning fluorimetry-based ThermoFMN assay"}, "[7]": {"target": "T2, Dihydroorotate dehydrogenase (fumarate) (Leishmania major)", "assay": "Binding affinity to Leishmania major DHODH assessed as change in melting temperature at 1000 uM by differential scanning fluorimetry-based ThermoFMN assay"}, "[8]": {"target": "T2, Dihydroorotate dehydrogenase (fumarate) (Leishmania major)", "assay": "Binding affinity to Leishmania major DHODH assessed as change in melting temperature at 100 uM by SYPRO orange dye-based differential scanning fluorimetry"}, "[9]": {"target": "T2, Dihydroorotate dehydrogenase (fumarate) (Leishmania major)", "assay": "Binding affinity to Leishmania major DHODH assessed as change in melting temperature at 500 uM by SYPRO orange dye-based differential scanning fluorimetry"}, "[10]": {"target": "T2, Dihydroorotate dehydrogenase (fumarate) (Leishmania major)", "assay": "Binding affinity to Leishmania major DHODH assessed as change in melting temperature at 1000 uM by SYPRO orange dye-based differential scanning fluorimetry"}, "[11]": {"tested_on": "Leishmania major", "assay": "Antileishmanial activity against Leishmania major promastigotes", "type": "functional, organism-based"}, "[12]": {"tested_on": "Leishmania major", "assay": "Antileishmanial activity against Leishmania major amastigotes", "type": "functional, organism-based"}, "[13]": {"tested_on": "Leishmania donovani", "assay": "Antileishmanial activity against Leishmania donovani MHOM/ET/67/L82 amastigotes after 72 hrs by Alamar Blue assay", "type": "functional, organism-based", "details": "MHOM/ET/67/L82, 72 h"}, "[14]": {"tested_on": "Trypanosoma cruzi", "assay": "Antitrypanosomal activity against Trypanosoma cruzi Tulahuen C2C4 trypomastigotes infected in rat skeletal myoblasts L-6 cells after 96 hrs by CPRG/Nonidet reagent based spectrophotometric method", "type": "functional, organism-based", "details": "Tulahuen C2C4, L6, 96 h"}, "[15]": {"tested_on": "Trypanosoma brucei rhodesiense", "assay": "Antitrypanosomal activity against Trypanosoma brucei rhodesiense STIB 900 trypomastigotes after 72 hrs by Alamar Blue assay", "type": "functional, organism-based", "details": "STIB 900, 72 h"}, "[16]": {"tested_on": "Leishmania amazonensis", "assay": "Antileishmanial activity against Leishmania amazonensis IFLA/BR/1967/PH-8 promastigotes after 48 hrs by MTT assay", "type": "functional, organism-based", "details": "IFLA/BR/1967/PH-8, 48 h"}, "[17]": {"tested_on": "Leishmania donovani", "assay": "Antileishmanial activity against Leishmania donovani", "type": "functional, organism-based"}, "[18]": {"tested_on": "Leishmania amazonensis", "assay": "Antileishmanial activity against Leishmania amazonensis", "type": "functional, organism-based"}, "[19]": {"tested_on": "Leishmania braziliensis", "assay": "Antileishmanial activity against Leishmania braziliensis", "type": "functional, organism-based"}, "[20]": {"tested_on": "Trypanosoma congolense", "assay": "Antitrypanosomal activity against Trypanosoma congolense STIB 910 trypomastigotes after 24 hrs by Alamar Blue assay", "type": "functional, organism-based", "details": "STIB 910, 24 h"}, "[21]": {"tested_on": "Trypanosoma brucei", "assay": "Antitrypanosomal activity against Trypanosoma brucei TC221 trypomastigotes after 24 hrs by Alamar Blue assay", "type": "functional, organism-based", "details": "TC221, 24 h"}, "[22]": {"tested_on": "Leishmania infantum", "assay": "Antileishmanial activity against Leishmania infantum MHOM/MA(BE)/6 amastigotes infected in mouse J774A.1 cells after 120 hrs by Giemsa staining-based assay", "type": "functional, organism-based", "details": "MHOM/MA(BE)/6, J774.A1, 120 h"}, "[23]": {"tested_on": "Leishmania infantum", "assay": "Antileishmanial activity against Leishmania infantum MHOM/MA(BE)/6 promastigotes infected in mouse J774A.1 cells after 120 hrs by Giemsa staining-based assay", "type": "functional, organism-based", "details": "MHOM/MA(BE)/6, J774.A1, 120 h"}, "[24]": {"tested_on": "Trypanosoma cruzi", "assay": "Antitrypanosomal activity against Trypanosoma cruzi trypomastigotes", "type": "functional, organism-based"}, "[25]": {"tested_on": "Trypanosoma brucei rhodesiense", "assay": "Antitrypanosomal activity against Trypanosoma brucei rhodesiense STIB900 trypomastigotes", "type": "functional, organism-based"}, "[26]": {"tested_on": "Leishmania donovani", "assay": "Antileishmanial activity against Leishmania donovani amastigotes", "type": "functional, organism-based"}}, "data": [{"smiles": "COc1cc(O)c2c(=O)cc(-c3ccc(OC)c(OC)c3)oc2c1", "values": [{"measurement": "IC50", "setting": "[1]", "value": 217, "unit": "µM"}, {"measurement": "IC50", "setting": "[2]", "value": 217, "unit": "µM"}]}, {"smiles": "C[C@@H]1CC[C@H]2[C@@H](C)C(=O)O[C@@H]3O[C@@]4(C)CC[C@@H]1[C@]32OO4", "note": "[ARTEMISININ]", "values": [{"measurement": "inhibition", "setting": "[3]", "value": 0, "unit": "%"}, {"measurement": "inhibition", "setting": "[4]", "value": 44, "unit": "%"}, {"measurement": "IC50", "setting": "[1]", "value": 172, "unit": "µM"}, {"measurement": "ΔTm", "setting": "[5]", "value": -0.13, "unit": "°C"}, {"measurement": "ΔTm", "setting": "[6]", "value": -0.35, "unit": "°C"}, {"measurement": "ΔTm", "setting": "[7]", "value": -0.4, "unit": "°C"}, {"measurement": "ΔTm", "setting": "[8]", "value": -0.14, "unit": "°C"}, {"measurement": "ΔTm", "setting": "[9]", "value": -0.22, "unit": "°C"}, {"measurement": "ΔTm", "setting": "[10]", "value": -0.52, "unit": "°C"}, {"measurement": "IC50", "setting": "[11]", "value": 0.75, "unit": "µM"}, {"measurement": "IC50", "setting": "[12]", "value": 0.3, "unit": "µM"}]}, {"smiles": "Oc1cc(O)c2c(c1)O[C@H](c1ccc(O)c(O)c1)[C@@H](O)C2", "note": "[CIANIDANOL]", "values": [{"measurement": "inhibition", "setting": "[3]", "value": 38, "unit": "%"}, {"measurement": "inhibition", "setting": "[4]", "value": 52, "unit": "%"}, {"measurement": "IC50", "setting": "[1]", "value": 98.3, "unit": "µM"}, {"measurement": "IC50", "setting": "[13]", "value": 103, "unit": "µM"}, {"measurement": "IC50", "setting": "[14]", "value": 310, "unit": "µM"}, {"measurement": "IC50", "setting": "[15]", "value": 50, "unit": "µM"}, {"measurement": "IC50", "setting": "[16]", "value": 153, "unit": "µM"}]}, {"smiles": "O=c1ccc2ccccc2o1", "note": "[COUMARIN]", "values": [{"measurement": "IC50", "setting": "[1]", "value": 642, "unit": "µM"}, {"measurement": "IC50", "setting": "[17]", "value": 342, "unit": "µM"}, {"measurement": "IC50", "setting": "[18]", "value": 342, "unit": "µM"}, {"measurement": "IC50", "setting": "[19]", "value": 342, "unit": "µM"}]}, {"smiles": "CC[C@H]1CN2CCc3cc(OC)c(OC)cc3[C@@H]2C[C@@H]1C[C@H]1NCCc2cc(OC)c(OC)cc21", "note": "[EMETINE]", "values": [{"measurement": "IC50", "setting": "[20]", "value": 0.43, "unit": "µM"}, {"measurement": "IC50", "setting": "[1]", "value": 1070, "unit": "µM"}, {"measurement": "IC50", "setting": "[21]", "value": 0.04, "unit": "µM"}]}, {"smiles": "C/C=C(/C)C(=O)O[C@H]1[C@H](OC(C)=O)[C@]2(CO)[C@H](O)C[C@]3(C)C(=CC[C@@H]4[C@@]5(C)CC[C@H](O[C@@H]6O[C@H](C(=O)O)[C@@H](O[C@@H]7O[C@H](CO)[C@@H](O)[C@H](O)[C@H]7O)[C@H](O)[C@H]6O[C@@H]6O[C@H](CO)[C@@H](O)[C@H](O)[C@H]6O)[C@](C)(CO)[C@@H]5CC[C@]43C)[C@@H]2CC1(C)C", "note": "[ESCIN IB]", "values": [{"measurement": "IC50", "setting": "[1]", "value": 478, "unit": "µM"}, {"measurement": "IC50", "setting": "[22]", "value": 1.37, "unit": "µM"}, {"measurement": "IC50", "setting": "[23]", "value": "> 14.1", "unit": "µM"}]}, {"smiles": "C=C(C)C(=O)O[C@H]1C[C@@]2(C)OC(=CC2=O)/C(CO)=C\\[C@H]2OC(=O)C(=C)[C@H]12", "note": "[GOIAZENSOLIDE]", "values": [{"measurement": "IC50", "setting": "[1]", "value": 156, "unit": "µM"}, {"measurement": "ΔTm", "setting": "[5]", "value": -0.32, "unit": "°C"}, {"measurement": "ΔTm", "setting": "[6]", "value": -0.84, "unit": "°C"}, {"measurement": "ΔTm", "setting": "[7]", "value": -1.13, "unit": "°C"}, {"measurement": "ΔTm", "setting": "[8]", "value": -0.73, "unit": "°C"}, {"measurement": "ΔTm", "setting": "[9]", "value": -4.19, "unit": "°C"}, {"measurement": "ΔTm", "setting": "[10]", "value": -6.51, "unit": "°C"}, {"measurement": "IC50", "setting": "[24]", "value": 1.08, "unit": "µM"}, {"measurement": "IC50", "setting": "[25]", "value": 0.07, "unit": "µM"}, {"measurement": "IC50", "setting": "[26]", "value": 0.45, "unit": "µM"}]}]}
